Patent US12678490B2, “Pharmaceutical combinations comprising insulin and at least an agent selected from meloxicam, bromfenac sodium, acetylsalicylic acid, salicyclic acid and paracetamol” (Eli Lilly and Company, priority 2017, dated 2026)

Tests used:
plasma glucose = test: Pre-clinical in vivo CSII model, local or oral dexamethasone with insulin lispro bolus; design: species or system Yucatan mini pigs; conditions: for Baseline-adjusted area under the curve for plasma glucose over the 6 hours following an insulin bolus: 0.15 U/kg U100 insulin lispro bolus, mean ± SEM; for improving infusion site viability: local delivery, 0.25 mg/h (6 mg/d)
[1] = Insulin lispro co-formulation stability, main peak loss and HMWP growth by analytical RP-HPLC; type: physicochemical; conditions: co-formulated with insulin lispro, 37° C.
Procedure: Two separate formulations are prepared as described above with 20 mM acetylsalicylic acid or 90 mM paracetamol; however, the m-cresol is excluded from the formulation. All samples are adjusted with water to achieve the final concentrations. […] All samples are filtered using 0.22 um syringe filter ([…]). […] The samples are visibly inspected for particulate or precipitation throughout study. Insulin lispro main peak loss and HMWP growth are tracked over time using HPLC. […] The UV detector is set to 214 nm wavelength, column temperature to 40° C., flowrate to 1 mL/min, and injection volume to 5 uL of each formulation. […] The data is collected and slope analysis of rate of change per day is performed using Y by X plots using commercial software.

Structure (SMILES)	Baseline-adjusted area under the curve for plasma glucose over the 6 hours following an insulin bolus (plasma glucose; Oral: 25 uL/h insulin placebo + twice daily oral 3 mg dexamethasone, day 0)	Baseline-adjusted area under the curve for plasma glucose over the 6 hours following an insulin bolus (plasma glucose; Oral: 25 uL/h insulin placebo + twice daily oral 3 mg dexamethasone, day 3)	Baseline-adjusted area under the curve for plasma glucose over the 6 hours following an insulin bolus (plasma glucose; Oral: 25 uL/h insulin placebo + twice daily oral 3 mg dexamethasone, day 5)	Baseline-adjusted area under the curve for plasma glucose over the 6 hours following an insulin bolus (plasma glucose; Oral: 25 uL/h insulin placebo + twice daily oral 3 mg dexamethasone, day 7)	Baseline-adjusted area under the curve for plasma glucose over the 6 hours following an insulin bolus (plasma glucose; Oral: 25 uL/h insulin placebo + twice daily oral 3 mg dexamethasone, day 10)	Baseline-adjusted area under the curve for plasma glucose over the 6 hours following an insulin bolus (plasma glucose; Subcutaneous: continuous infusion of 0.25 mg/h dexamethasone, day 0)	Baseline-adjusted area under the curve for plasma glucose over the 6 hours following an insulin bolus (plasma glucose; Subcutaneous: continuous infusion of 0.25 mg/h dexamethasone, day 3)	Baseline-adjusted area under the curve for plasma glucose over the 6 hours following an insulin bolus (plasma glucose; Subcutaneous: continuous infusion of 0.25 mg/h dexamethasone, day 5)	Baseline-adjusted area under the curve for plasma glucose over the 6 hours following an insulin bolus (plasma glucose; Subcutaneous: continuous infusion of 0.25 mg/h dexamethasone, day 7)	Baseline-adjusted area under the curve for plasma glucose over the 6 hours following an insulin bolus (plasma glucose; Subcutaneous: continuous infusion of 0.25 mg/h dexamethasone, day 10)	improving infusion site viability (plasma glucose)	improving infusion site viability (plasma glucose; listed as dexamethosone) [days]	effect on infusion site viability (plasma glucose; orally delivered)	impact on insulin lispro stability [1]
C[C@@H]1C[C@H]2[C@@H]3CCC4=CC(=O)C=C[C@]4(C)[C@@]3(F)[C@@H](O)C[C@]2(C)[C@@]1(O)C(=O)CO [Dexamethasone, (8S,9R,10S,11S,13S,14S,16R,17R)-9-fluoro-11,17-dihydroxy-17-(2-hydroxyacetyl)-10,13,16-trimethyl-6,7,8,11,12,14,15,16-octahydrocyclopenta[a]phenanthren-3-one]	−14218 ± 754	−5265 ± 2130	−8109 ± 987	−7750 ± 1491	−4266 ± 1551	−16700 ± 2027	−12591 ± 873	−12297 ± 755	−7149 ± 1555	−4893 ± 775	up to 5 days	5	no effect	–
CC(=O)Oc1ccccc1C(=O)O [acetylsalicylic acid, 2-acetoxybenzoic acid]	–	–	–	–	–	–	–	–	–	–	–	–	–	minimal impact on insulin lispro stability
CC(=O)Nc1ccc(O)cc1 [paracetamol, N-(4-hydroxypehnyl)acetamide]	–	–	–	–	–	–	–	–	–	–	–	–	–	minimal impact on insulin lispro stability
